Key:
[1] = system: PANMI (wild proso millet); assay: Pre-emergence herbicidal activity, warm season; type: in vivo, Panicum miliaceum; conditions: GR80 = lowest tested rate (300, 100, 30, 10 g/ha) with 80% or greater inhibition; approx. 14 days after treating; 30/21° C.
Method: (§1) Tables 5 to 8 summarize results of tests conducted as described below to determine the pre-emergence herbicidal activity, in the form of a GR80 value, of illustrative compounds of this invention. […] Compounds of the invention were typically applied at rates of 300, 100, 30, and 10 g/ha. Where herbicidal activity was evident but 80% inhibition was not achieved at the highest rate tested, an asterisk (*) is shown in the following tables.
(§2) The pre-emergence tests were conducted by the following procedure. Topsoil was sieved to pass through a 1.27 cm screen. Fertilizer was added to the topsoil and the mixture was then sterilized by heating. The topsoil mixture was placed in a pot and compacted to a depth of 1.0 to 1.25 cm from the top of the pot. Seeds of each of several monocotyledonous and dicotyledonous annual plant species were placed on top of the soil. Additional soil was subsequently placed over the seeds to level-fill the pot. A known amount of each test compound dissolved or suspended in an appropriate organic solvent was diluted with a 50:50 mix of acetone and water and applied to the surface of the soil. After treatment the plants were placed in a greenhouse where they received 0.64 cm of overhead irrigation. All subsequent watering consisted of a light overhead mist and/or subirrigation as needed for germination and growth. Tables 5 and 6 below relate to warm season plant species which were placed after pre-emergence treatment in a greenhouse with a 30/21° C. day/night temperature regime. Tables 7 and 8 below relates to cool season plant species placed after pre-emergence treatment in a greenhouse or growth chamber with an 18/13° C. day/night temperature regime.
(§3) Approximately 14 days after planting and treating, the plants were observed and herbicidal efficacy recorded as percent inhibition by comparison with untreated plants.
(§4) The plant species usually regarded as weeds which were utilized in the tests are identified in the tables below according to the following legend, in which “d” indicates a dicotyledonous species and “m” a monocotyledonous species. All monocotyledonous species included in the tests herein are grasses.

[2] = system: AGSST (creeping bentgrass); assay: Pre-emergence herbicidal activity, cool season; type: in vivo, Agrostis stolonifera; conditions: GR80 = lowest tested rate (300, 100, 30, 10 g/ha) with 80% or greater inhibition; approx. 14 days after treating; 18/13° C.
Method: as §1, §2, §3, §4

[3] = system: LAMPU (purple deadnettle); assay: Pre-emergence herbicidal activity, cool season; type: in vivo, Lamium purpureum; conditions: lowest tested rate with 80% or greater inhibition; rates 300, 100, 30, 10 g/ha; about 14 days
Method: as §1, §2, §3, §4

[4] = system: SETVI (green foxtail); assay: Pre-emergence herbicidal activity, cool season; type: in vivo, Setaria viridis; conditions: GR80 = lowest tested rate (300, 100, 30, 10 g/ha) with 80% or greater inhibition; approx. 14 days after treating; 18/13° C.
Method: as §1, §2, §3, §4

[5] = system: STEME (common chickweed); assay: Pre-emergence herbicidal activity, cool season; type: in vivo, Stellaria media; conditions: lowest tested rate with 80% or greater inhibition; rates 300, 100, 30, 10 g/ha; about 14 days
Method: as §1, §2, §3, §4

[6] = system: POLCO (wild buckwheat); assay: Pre-emergence herbicidal activity, cool season; type: in vivo, Polygonum convolvulus; conditions: lowest tested rate with 80% or greater inhibition; rates 300, 100, 30, 10 g/ha; about 14 days
Method: as §1, §2, §3, §4

[7] = system: VERPE (creeping speedwell); assay: Pre-emergence herbicidal activity, cool season; type: in vivo, Veronica persicaria; conditions: lowest tested rate with 80% or greater inhibition; rates 300, 100, 30, 10 g/ha; about 14 days
Method: as §1, §2, §3, §4

[8] = system: SASKR (russian thistle); assay: Pre-emergence herbicidal activity, cool season; type: in vivo, Salsola kali; conditions: lowest tested rate with 80% or greater inhibition; rates 300, 100, 30, 10 g/ha; about 14 days
Method: as §1, §2, §3, §4

[9] = system: GALAP (catchweed bedstraw); assay: Pre-emergence herbicidal activity, cool season; type: in vivo, Galium aparine; conditions: lowest tested rate with 80% or greater inhibition; rates 300, 100, 30, 10 g/ha; about 14 days
Method: as §1, §2, §3, §4

[10] = system: SINAR (wild mustard); assay: Pre-emergence herbicidal activity, cool season; type: in vivo, Sinapis arvensis; conditions: lowest tested rate with 80% or greater inhibition; rates 300, 100, 30, 10 g/ha; about 14 days
Method: as §1, §2, §3, §4

[11] = system: SOLNI (black nightshade); assay: Pre-emergence herbicidal activity, warm season; type: in vivo, Solanum nigrum; conditions: GR80 = lowest tested rate (300, 100, 30, 10 g/ha) with 80% or greater inhibition; approx. 14 days after treating; 30/21° C.
Method: as §1, §2, §3, §4

[12] = system: SETFA (giant foxtail); assay: Pre-emergence herbicidal activity, warm season; type: in vivo, Setaria faberi; conditions: GR80 = lowest tested rate (300, 100, 30, 10 g/ha) with 80% or greater inhibition; approx. 14 days after treating; 30/21° C.
Method: as §1, §2, §3, §4

[13] = system: SORHA (johnsongrass (seedling)); assay: Pre-emergence herbicidal activity, warm season; type: in vivo, Sorghum halepense; conditions: GR80 = lowest tested rate (300, 100, 30, 10 g/ha) with 80% or greater inhibition; approx. 14 days after treating; 30/21° C.
Method: as §1, §2, §3, §4

[14] = system: ECHCG (barnyardgrass); assay: Pre-emergence herbicidal activity, warm season; type: in vivo, Echinochloa crus-galli; conditions: GR80 = lowest tested rate (300, 100, 30, 10 g/ha) with 80% or greater inhibition; approx. 14 days after treating; 30/21° C.
Method: as §1, §2, §3, §4

SMILES | Pre-emergence activity (GR80) PANMI [1] | Pre-emergence activity (GR80) AGSST [2] | Pre-emergence activity GR80, LAMPU [3] | Pre-emergence activity (GR80) SETVI [4] | Pre-emergence activity GR80, STEME [5] | Pre-emergence activity GR80, POLCO [6] | Pre-emergence activity GR80, VERPE [7] | Pre-emergence activity GR80, SASKR [8] | Pre-emergence activity GR80, GALAP [9] | Pre-emergence activity GR80, SINAR [10] | Pre-emergence activity (GR80) SOLNI [11] | Pre-emergence activity (GR80) SETFA [12] | Pre-emergence activity (GR80) SORHA [13] | Pre-emergence activity (GR80) ECHCG [14]
C=CCN(C)C(=O)n1cnc(S(=O)(=O)C(F)(F)SCC)n1 [Example 53] | 300 g/ha | 300 g/ha | [empty] | 300 g/ha | [empty] | [empty] | [empty] | [empty] | 300 g/ha | [empty] |  |  |  | 
CN(Cc1ccccc1)C(=O)n1cnc(S(=O)(=O)C(F)(F)C(F)F)n1 [Example 68] | 300 g/ha |  | [empty] | 300 g/ha | [empty] | 300 g/ha | [empty] | [empty] | 300 g/ha | 300 g/ha | 300 g/ha | 300 g/ha |  | 
CN(C)C(=O)n1cnc(S(=O)(=O)C(F)(F)C(F)(F)Br)n1 [Example 73] | 100 g/ha | 100 g/ha | 300 g/ha | 300 g/ha | 300 g/ha | [empty] | 100 g/ha | 100 g/ha | 100 g/ha | 100 g/ha |  |  | 300 g/ha | 300 g/ha
C#CCN(C)C(=O)n1cnc(S(=O)(=O)C(F)(F)C(F)(F)Br)n1 [Example 78] |  |  | 100 g/ha |  | [empty] | [empty] | 30 g/ha | 100 g/ha | [empty] | 30 g/ha | 300 g/ha |  |  | 
CN(C(=O)n1cnc(S(=O)(=O)C(F)(F)C(F)(F)Br)n1)C1CCCCC1 [Example 79] | 300 g/ha | 100 g/ha | 100 g/ha | 300 g/ha | 100 g/ha | 300 g/ha | 30 g/ha | [empty] | 300 g/ha | 300 g/ha |  |  |  | 300 g/ha
CN(Cc1ccccc1)C(=O)n1cnc(S(=O)(=O)C(F)(F)C(F)(F)Br)n1 [Example 80] | 300 g/ha |  | [empty] | 300 g/ha | [empty] | [empty] | [empty] | [empty] | [empty] | [empty] |  |  |  | 

Reference: US6461997B1, “Triazole sulfones having herbicidal activity” (Monsanto Technology LLC, priority 1999, dated 2002)
